Counter-ions that a name gives are not always drawn. Like-named read-outs stand apart in the source and are kept apart here.
Legend:
[1] = room temperature; cited from earlier work
[2] = pKa of the organic compound; assay type: physicochemical; conditions: average of plural pKa values
Source text: The pKa of the organic compound can be determined by a neutralization titration method (Kagaku Binran Kiso-hen I and II (Handbook of Chemistry, basic I and II) (Ver. 4) edited by The Chemical Society of Japan, Maruzen Publishing, 1993). […] When the organic compound has a single pKa value, the value is employed as the pKa of the organic compound.

[3] = target: T1, FTHc ferritin (Homo sapiens, UniProt P02794); assay: one-step incorporation of DOX into mutant ferritin FTHc; assay type: physicochemical; conditions: pH 8, 50° C., 60 minutes, DOX 0.3 mg/L
T1 construct: pET20-FTH carrying a DNA encoding a human-derived ferritin H chain monomer as a template; single cysteine residue (C) appended; made in house; host or cells: Escherichia coli BL21 (DE3), plasmid pET20-FTHc
Protocol: PCR was carried out using pET20-FTH carrying a DNA encoding a human-derived ferritin H chain monomer as a template as well as the following primers: 5′-[…]-3′ (SEQ ID NO: 12) and 5′-[…]-3′ (SEQ ID NO: 13). The resulting PCR products were purified using Wizard DNA Clean-Up System (Promega Corporation), and then treated with restriction enzymes, Dpnl and BamHI (Takara Bio Inc.) for self-ligation in order to construct an expression plasmid (pET20-FTHc) carrying a gene encoding FTHc monomer with a cysteine added to the C-terminus. Ferritin including FTHc monomers is referred to as FTHc ferritin, as appropriate.
DOX was mixed with 1 mL of 50 mM Tris-HCl buffer (pH 8) that contains each mutate ferritin at a final concentration of 1 mg/mL, to achieve a final concentration of 0.3 mg/L, and then the resulting solutions were left to stand at 50° C. for 60 minutes. After the standing and centrifuging (at 15,000 rpm for one minute), the supernatant was injected into the desalting column PD-10 (Sephadex G-25 filled product, GE Healthcare Inc.) equilibrated with 10 mM Tris-HCl buffer (pH 8) to separate the protein from a reagent that was not encapsulated. […] The concentration of contained protein was determined using the protein assay CBB solution (Nacalai Tesque, Inc.) as well as bovine albumin as a standard. The DOX concentration was determined based on analysis of the absorbance at 480 nm.

[4] = target: T2, FTL ferritin (Homo sapiens, UniProt P02792); assay: one-step incorporation of DOX into FTL ferritin; assay type: physicochemical; conditions: pH 8, 50° C., 60 minutes, DOX 0.3 mg/L
T2 construct: made in house; host or cells: Escherichia coli BL21 (DE3), plasmid pET20-FTL
Protocol: The incorporation of the reagent into L chain reagent was carried out using the one-step process. Total synthesis was carried out for a DNA encoding a human-derived ferritin L chain (FTL (SEQ ID NO: 2)) monomer. PCR was carried out using the synthesized DNA as a template as well as the following primers: 5′-[…]-3′ (SEQ ID NO: 234) and 5′-[…]-3′ (SEQ ID NO: 235). PCR was carried out using pET20 (Merck KGaA) as a template as well as the following primers: 5′-[…]-3′ (SEQ ID NO: 5) and 5′-[…]-3′ (SEQ ID NO: 6). The resulting PCR products were purified using Wizard DNA Clean-Up System (Promega Corporation), and then subjected to In-Fusion enzyme treatment at 50° C. for 15 minutes using In-Fusion HD Cloning Kit (Takara Bio Inc.) to construct an expression plasmid (pET20-FTL) carrying a gene encoding FTL monomer.
DOX was mixed with 1 mL of 50 mM Tris-HCl buffer (pH 8) that contains each mutate FTL ferritin at a final concentration of 1 mg/mL, to achieve a final concentration of 0.3 mg/L, and then the resulting solutions were left to stand at 50° C. for 60 minutes. […] The concentration of contained protein was determined using the protein assay CBB solution (Nacalai Tesque, Inc.) as well as bovine albumin as a standard. The DOX concentration was determined based on analysis of the absorbance at 480 nm.

[5] = tested on: ferritin; conditions: cited from earlier work
[6] = cited from earlier work
[7] = target: T3, FTH ferritin (Homo sapiens, UniProt P02794); assay: one-step process incorporation of small molecule agents into FTH ferritin; assay type: physicochemical; conditions: pH of buffer giving the largest amount of incorporation within ferritin
T3 construct: made in house; host or cells: Escherichia coli BL21 (DE3), plasmid pET20-FTH
Protocol: All of the reactions were performed in 0.1 mL volume. […] The absorbances were measured using spectrophotometer (DU-800, Beckman Coulter Inc.) for these solutions, and the concentration of contained protein was determined using the protein assay CBB solution (Nacalai Tesque, Inc.) as well as bovine albumin as a standard. Absorbances at 280 nm and 480 nm were measured for Rhodamine B and Congo Red. […] Then, after the absorbances were calibrated based on the absorbances that were derived from the proteins and presumed by the amount of contained protein quantified using the protein assay CBB solution, the concentrations of small molecule agents were determined based on the calibration curves obtained by the absorbances of the molecules. […] As a result, the one-step process enabled incorporating also the small molecule agents with different physical properties such as molecular weight and pKa simply and easily.

T3 sequence (P02794 whole entry): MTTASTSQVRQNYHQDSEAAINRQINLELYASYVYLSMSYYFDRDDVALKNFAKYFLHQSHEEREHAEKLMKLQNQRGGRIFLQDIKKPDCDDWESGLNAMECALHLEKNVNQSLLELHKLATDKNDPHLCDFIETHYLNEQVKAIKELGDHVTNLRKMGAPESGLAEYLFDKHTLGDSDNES
T2 sequence (P02792 whole entry): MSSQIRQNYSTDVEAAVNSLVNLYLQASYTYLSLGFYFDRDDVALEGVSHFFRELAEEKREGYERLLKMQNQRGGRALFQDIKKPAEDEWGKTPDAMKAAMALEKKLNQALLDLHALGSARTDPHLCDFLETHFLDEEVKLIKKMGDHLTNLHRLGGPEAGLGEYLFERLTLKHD
T1 sequence (P02794 with tags, fused parts or gaps): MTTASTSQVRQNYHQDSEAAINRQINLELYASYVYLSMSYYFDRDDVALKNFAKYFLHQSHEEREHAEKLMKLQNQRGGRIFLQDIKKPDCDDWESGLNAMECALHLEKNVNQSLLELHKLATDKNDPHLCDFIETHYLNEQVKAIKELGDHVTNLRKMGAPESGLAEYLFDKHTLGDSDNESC

COc1cccc2c1C(=O)c1c(O)c3c(c(O)c1C2=O)C[C@@](O)(C(=O)CO)C[C@@H]3OC1CC(N)C(O)C(C)O1 (stereo partly drawn) [DOX, Doxorubicin hydrochloride]
solubility of DOX in water [1]: ≥ 60 mg/mL
pKa [2]: 8.42
incorporation efficiency of the reagent [3]: 8.6 % (wt)
incorporation efficiency of the reagent [4]: 7.0 % (wt)
doxorubicin molecules encapsulated in ferritin ([5]; denaturing with urea and refolding): approximately 33 molecules
doxorubicin molecules encapsulated in ferritin ([5]; disassembly at pH 2, reassembly at pH 7-9): approximately 28 molecules
doxorubicin molecules encapsulated in ferritin ([5]; high pressure (200-800 MPa) for 6-20 hours): 10-20 molecules
doxorubicin molecules encapsulated in ferritin ([5]; modified ferritin, pH 2 by addition of HCl): 30-90 molecules
pKa ([6]; second pKa value): 8.46
pKa ([6]; single or first pKa value): 7.34
pKa ([6]; third printed pKa value): 9.46
Optimal pH in reaction [7]: 9

Reference: patent US20210253651A1, “METHOD FOR PRODUCING ORGANIC COMPOUND-ENCAPSULATING FERRITIN” (Ajinomoto Co., Inc., priority 2018, published 2021)
